Data as given in publication PMC7073524 (Marine Drugs, 2020).
Where two headings read alike, the source gives them in different places.

How the values were obtained:
[1] = biological target: rat brain α7 receptors (Rattus norvegicus, UniProt Q05941); experiment: biochemical; assay type: binding
[2] = biological target: T1, human α4β2 nAChR (Homo sapiens, UniProt P17787+P43681); experiment: Two-electrode voltage-clamp, human α4β2 nAChRs expressed in Xenopus oocytes; assay type: cell-based; details: ± SEM; for EC50: EC50, potency, peak current; for Imax (% ACh): efficacy, peak current normalized to 100 µM ACh
T1 construct: expressed in transfected cells; host or cells: Xenopus laevis oocytes (mRNA injection)
T1 sequence (P43681 29-627 limits assumed): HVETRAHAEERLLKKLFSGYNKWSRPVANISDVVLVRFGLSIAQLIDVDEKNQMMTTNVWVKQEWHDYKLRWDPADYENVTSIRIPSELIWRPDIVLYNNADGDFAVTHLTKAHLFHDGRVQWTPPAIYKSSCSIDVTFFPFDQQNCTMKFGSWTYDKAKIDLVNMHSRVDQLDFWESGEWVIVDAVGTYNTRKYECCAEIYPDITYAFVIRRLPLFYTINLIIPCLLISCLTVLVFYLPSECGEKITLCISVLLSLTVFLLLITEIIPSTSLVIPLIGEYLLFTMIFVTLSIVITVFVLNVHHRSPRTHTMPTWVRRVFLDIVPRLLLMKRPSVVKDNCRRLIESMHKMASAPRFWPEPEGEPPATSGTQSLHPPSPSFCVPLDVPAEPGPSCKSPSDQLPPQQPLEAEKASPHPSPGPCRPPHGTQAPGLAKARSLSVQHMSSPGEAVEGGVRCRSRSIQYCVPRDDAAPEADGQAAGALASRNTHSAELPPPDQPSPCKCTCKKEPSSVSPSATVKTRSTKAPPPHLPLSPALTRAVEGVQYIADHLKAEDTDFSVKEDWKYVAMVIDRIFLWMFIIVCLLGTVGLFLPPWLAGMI
T1 sequence (P17787 26-502): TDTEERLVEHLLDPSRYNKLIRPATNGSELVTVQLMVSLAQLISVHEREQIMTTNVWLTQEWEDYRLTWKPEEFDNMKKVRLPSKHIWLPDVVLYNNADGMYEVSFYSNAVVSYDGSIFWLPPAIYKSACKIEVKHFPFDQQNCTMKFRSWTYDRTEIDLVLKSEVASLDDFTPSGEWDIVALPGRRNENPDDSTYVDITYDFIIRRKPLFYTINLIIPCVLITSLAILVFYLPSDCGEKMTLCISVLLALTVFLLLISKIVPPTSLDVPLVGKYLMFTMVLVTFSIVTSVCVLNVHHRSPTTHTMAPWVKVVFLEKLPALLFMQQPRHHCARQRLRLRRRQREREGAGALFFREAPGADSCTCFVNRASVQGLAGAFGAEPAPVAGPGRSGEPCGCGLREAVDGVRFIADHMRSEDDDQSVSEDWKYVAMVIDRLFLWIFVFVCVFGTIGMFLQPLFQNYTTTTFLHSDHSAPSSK
Excerpt: (§1) It has been especially useful for investigating α7 nAChRs, due to the difficulties that were initially encountered in functional expression of this particular homomeric nAChR in mammalian cells. We measured the peak current response of an oocyte to a given concentration of the compound and expressed its amplitude with respect to the mean response to ACh before and after the compound test concentration.
(§2) Oocytes were harvested from Xenopus laevis frogs obtained from NASCO Scientific Co. (Ft. Atkinson, WI, USA) according to an accepted Kem laboratory Institutional Animal Care Committee (IACUC) approved protocol. We have already described the methods of oocyte injection, perfusion, rapid solution changes, and recording in considerable detail. Oocytes were injected with identical amounts (usually 12 ng) of human α4 and β2 mRNAs for α4β2 nAChR expression, or 20 ng of human α7 mRNAs for α7 nAChR expression. The two-electrode voltage-clamp method was used for recording peak responses (holding Em-50 mV for α4β2 and-60 mV for α7 receptors). […] The oocyte was no longer used if the current response to ACh decreased more than 20% during the experiment. Compounds dissolved in Barth’s saline (pH 7.3) were rapidly administered by an AutoMate perfusion system. Compound applications were separated by a 5 min wash period. We utilized GraphPad Prism software to analyze the data, always assuming a single homogeneous receptor population.

[3] = biological target: T2, human α7 nAChR (Homo sapiens, UniProt P36544); experiment: Two-electrode voltage-clamp, human α7 nAChRs expressed in Xenopus oocytes; assay type: cell-based; details: for EC50: EC50, potency, peak current estimates; for EC50 / Imax (% ACh): ± SEM; for Imax (% ACh): efficacy, peak current normalized to 1 mM ACh; for agonist character at α7 nAChRs: in words
T2 construct: expressed in transfected cells; host or cells: Xenopus laevis oocytes (mRNA injection)
T2 sequence (P36544 23-502): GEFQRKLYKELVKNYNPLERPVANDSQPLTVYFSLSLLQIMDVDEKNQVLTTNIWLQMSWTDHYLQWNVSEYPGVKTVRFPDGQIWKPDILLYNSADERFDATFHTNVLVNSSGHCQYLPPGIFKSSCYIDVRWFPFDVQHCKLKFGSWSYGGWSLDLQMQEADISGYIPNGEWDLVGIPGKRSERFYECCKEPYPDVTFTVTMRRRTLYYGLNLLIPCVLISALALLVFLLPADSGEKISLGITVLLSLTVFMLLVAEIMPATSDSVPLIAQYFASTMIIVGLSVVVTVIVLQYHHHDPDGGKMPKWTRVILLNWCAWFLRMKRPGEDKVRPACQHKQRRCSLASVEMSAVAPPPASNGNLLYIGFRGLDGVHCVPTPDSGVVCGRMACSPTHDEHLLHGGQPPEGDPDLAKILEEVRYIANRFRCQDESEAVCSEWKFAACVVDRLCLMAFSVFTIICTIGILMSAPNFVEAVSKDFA
Excerpt: as §1, §2

[4] = biological target: rat brain α4β2 nAChRs (Rattus norvegicus, UniProt P09483+P12390); experiment: [3H]-cytisine displacement from rat brain membranes; assay type: binding; details: ± SEM; for Ki: 0.3 nM [3H]-cytisine, 4 °C 4 h; for Hill Slope: [3H]-cytisine displacement
Chain of rat brain α4β2 nAChRs (P09483 31-630): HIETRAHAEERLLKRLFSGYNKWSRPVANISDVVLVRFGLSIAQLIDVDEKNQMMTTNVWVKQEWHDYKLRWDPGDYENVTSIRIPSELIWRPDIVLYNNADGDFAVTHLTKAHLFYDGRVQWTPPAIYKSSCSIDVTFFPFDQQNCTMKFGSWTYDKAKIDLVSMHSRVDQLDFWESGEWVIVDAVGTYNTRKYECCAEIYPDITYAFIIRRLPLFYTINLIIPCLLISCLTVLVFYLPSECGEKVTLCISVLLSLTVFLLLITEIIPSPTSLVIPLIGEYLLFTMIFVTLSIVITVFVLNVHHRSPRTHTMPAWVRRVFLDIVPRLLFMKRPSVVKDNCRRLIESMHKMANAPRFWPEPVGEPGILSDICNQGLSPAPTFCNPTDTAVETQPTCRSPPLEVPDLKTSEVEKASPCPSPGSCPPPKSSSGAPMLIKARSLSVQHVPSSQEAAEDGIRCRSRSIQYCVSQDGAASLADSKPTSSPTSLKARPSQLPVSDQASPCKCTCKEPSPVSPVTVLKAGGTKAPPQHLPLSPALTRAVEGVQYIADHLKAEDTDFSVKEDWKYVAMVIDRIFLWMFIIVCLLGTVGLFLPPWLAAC
Chain of rat brain α4β2 nAChRs (P12390 25-500): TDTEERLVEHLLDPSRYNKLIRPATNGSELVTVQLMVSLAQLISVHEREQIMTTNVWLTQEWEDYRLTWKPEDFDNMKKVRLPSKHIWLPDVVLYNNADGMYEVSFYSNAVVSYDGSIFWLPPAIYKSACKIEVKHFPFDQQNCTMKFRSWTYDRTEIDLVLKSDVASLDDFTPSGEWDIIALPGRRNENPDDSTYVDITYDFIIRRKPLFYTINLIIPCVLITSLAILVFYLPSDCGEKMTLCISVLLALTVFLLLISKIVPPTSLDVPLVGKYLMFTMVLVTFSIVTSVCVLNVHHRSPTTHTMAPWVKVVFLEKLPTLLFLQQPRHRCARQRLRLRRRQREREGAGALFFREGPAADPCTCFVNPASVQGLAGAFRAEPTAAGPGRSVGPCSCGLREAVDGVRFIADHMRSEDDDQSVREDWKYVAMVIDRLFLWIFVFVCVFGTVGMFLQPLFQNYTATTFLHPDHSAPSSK
Procedure: [^3H]-Cytisine was purchased from New England Nuclear and iodinated α-bungarotoxin [^125I]-BTX from Amersham. […] [^3H]-Cytisine binding experiments were performed according to [57] with several modifications. Rat brain membranes were incubated with [^3H]-cytisine at 4 °C for 4 h. Then, 200 μg of membrane protein was incubated in a final volume of 500 μL binding saline at 4 °C for 4 h, while binding assays with ^125I-bungarotoxin were incubated at 37 °C for 3 h to assure that equilibrium was reached. […] Reactions were terminated by vacuum filtrations through Whatman GF/C filters (presoaked in PEI) using a Brandel cell harvester. Bound [^3H]-cytisine and ^125I-bungarotoxin were measured with liquid scintillation and gamma counters, respectively. Data were analyzed using GraphPad Prism software (San Diego, CA, USA). The data were fit by nonlinear regression analyses to a sigmoidal dose-response with variable slope. Ki values were calculated using the Cheng-Prusoff equation (K i = IC50/(1 + [RL]/Kd RL)) with a Kd RL value for each radioligand that had been previously determined. IC50 is the median inhibition concentration of the experimental compound and [RL] is the concentration of the radioligand.

[5] = biological target: T1, human α4β2 nAChR; details: human α4β2 nAChRs; ref Kem et al., in preparation; cited from earlier work

Chain of rat brain α7 receptors (Q05941 23-502): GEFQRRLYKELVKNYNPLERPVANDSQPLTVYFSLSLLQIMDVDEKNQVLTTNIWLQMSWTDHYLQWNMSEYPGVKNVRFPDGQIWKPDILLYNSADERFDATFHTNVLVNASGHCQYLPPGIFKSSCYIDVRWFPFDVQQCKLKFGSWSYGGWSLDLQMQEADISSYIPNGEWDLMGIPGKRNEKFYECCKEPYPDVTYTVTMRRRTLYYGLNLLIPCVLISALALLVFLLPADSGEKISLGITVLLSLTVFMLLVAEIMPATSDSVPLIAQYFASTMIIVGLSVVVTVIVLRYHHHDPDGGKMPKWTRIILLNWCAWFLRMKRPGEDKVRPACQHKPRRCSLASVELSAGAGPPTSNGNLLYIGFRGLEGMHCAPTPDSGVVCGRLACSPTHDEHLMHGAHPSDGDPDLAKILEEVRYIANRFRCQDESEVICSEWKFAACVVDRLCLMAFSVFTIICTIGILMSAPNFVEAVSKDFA

SMILES: C1=CC[C@@H](c2cccnc2)NC1 [S-anatabine, anatabine]
- Ki [1]: 236 ± 20 nM

SMILES: C1=CC(c2cccnc2)NCC1 (stereo not drawn) [R-isoanatabine, isoanatabine]
- EC50 [2]: 310 ± 90 nM
- Imax (% ACh) [2]: 102 ± 5.7 %ACh
- EC50 [3]: 61300 ± 12000 nM
- Imax (% ACh) [3]: 35.4 ± 5.3 % ACh
- agonist character at α7 nAChRs [3]: weak partial agonist
- Ki [4]: 136 ± 11 nM
- Hill Slope [4]: 0.94 ± 0.05

SMILES: C1=CC[C@H](c2cccnc2)NC1 [R-anatabine, anatabine]
- Ki [1]: 680 ± 120 nM

SMILES: C1=CC(c2cccnc2)NCC1 (stereo not drawn) [S-isoanatabine, isoanatabine]
- EC50 [2]: 1010 ± 330 nM
- Imax (% ACh) [2]: 78.7 ± 1.9 %ACh
- EC50 [3]: 52300 ± 13000 nM
- Imax (% ACh) [3]: 81.9 ± 9.1 % ACh
- agonist character at α7 nAChRs [3]: highly efficacious agonists
- Ki [4]: 108 ± 14 nM
- Hill Slope [4]: 1.08 ± 0.15

SMILES: c1cncc([C@@H]2CCCCN2)c1 [S-anabasine, anabasine]
- EC50 [5]: 4000 nM
- Imax [5]: 78%
